# What was measured:
# [1] = Particle size and polydispersity index of lipid nanoparticles by dynamic light scattering; format: physicochemical; settings: mean ± SD n=3
# Method: The average hydrodynamic diameter and polydispersity index (PDI) of lipid nanoparticles were measured by dynamic light scattering (DLS) using a Malvern Zetasizer Nano ZS (Malvern Instruments, UK). All measurements were performed at 25° C. (n=3) by loading the lipid formulations (10 μL) into clear 96-well half-area polystyrene plates and diluting with 190 μL milli-Q water (Zhai et al. 2015).
# [2] = Drug loading and encapsulation efficiency of SN-38 nanoparticles by HPLC; format: physicochemical
# Method: The amount of drug loading (DL) and encapsulation efficiency (EE) were determined for each of the four formulations of Example 5 using an HPLC method.
# The nanoparticles containing the drug was centrifuged at 1000×g for 25 min at 25° C. to remove any un-encapsulated drug agglomerates. The supernatant was collected and vortexed for 10 min at 2500 rpm for uniform distribution.
# For the SN-38 drug content assay, a UV variable detector at a wavelength of 265 nm and an Agilent Zorbax SB-C18 column (4.6 mm×250 mm, five μm) were utilised. The mobile phase consisted of a 50:50 (v/v) mixture of 25 mM NaH2PO4 (pH=3.1) buffer and acetonitrile. The mobile phase pH was maintained at 3.8 to ensure the analyte, SN-38, was in the closed lactone ring form during the assay. The sample for HPLC was prepared by diluting the nanoparticles 100 times with HPLC solvents (10 μL of the formulation with 990 μL 50/50 mixture of buffer and acetonitrile). During the assay, an aliquot of 20 μL of the sample was injected in duplicate into the HPLC system at a flow rate of 1 ml/min. The SN-38 content in the formulation was quantitatively determined using a standard curve prepared as outlined in previously published journal articles (Zhang et al. 2004; Escoriaza et al. 2000).
# The following equation was used calculate the encapsulation efficiency (EE %) […]
# [3] = In vitro release of SN-38 by dynamic dialysis; format: physicochemical; settings: pure-drug suspension, no lipid nanocarriers, within 60-90 min
# Method: In vitro release of SN-38 from the nanoparticles was evaluated using a dynamic dialysis method (Zambito, Y. International Journal of Pharmaceutics 2012, 434 (1), 28-34). The drug release rate was determined by placing the dispersion in a dialysis tube (Pur-A-Lyzer™ Maxi Dialysis tube molecular weight cut off 3500) and exhaustively dialysing.
# After removing the free drug, the highest SN-38 loaded nanoparticles (1 mL formulation) were placed inside the dialysis tube. The dialysis tube was then immersed in a 1000 mL buffer maintained at 37±1.0° C. and stirred at 400 rpm. The analysis of the separation of free drug from drug-loaded formulations was carried out over a period of 420 min. Release experiments were performed in triplicate on three independently prepared SN-38 loaded formulations. For physiological pH, experiments were carried out by dialysing the formulations against 1000 mL of phosphate buffer (pH 7.0). Lower pH experiments were carried out by dialysing the formulations against 1000 mL of phosphate buffer adjusted to the required pH. The SN-38 that remained in the dialysis tube was quantitatively measured by the HPLC method. At predetermined time intervals (60 min, 120 min, 240 min and 420 min), 10 μL of the sample was withdrawn from the dialysis tube and diluted with 990 μL of the HPLC solvent. […]
# [4] = cited from earlier work
# [5] = Mesophase (phase behaviour) of lipid nanoparticles by synchrotron SAXS; format: physicochemical
# Method: Nanoparticle preparations (50 μL) were loaded into a transparent 96-well half-area polystyrene plate (Greiner Bio-One, Interpath Inc., VIC, Australia), and 50 μL of a suitable buffer solution (Citrate buffer) of specified pH was added to the plate. Phase behaviour of the nanoparticles was characterized at the SAXS/WAXS beamline of the Australian Synchrotron. The instrument used an X-ray wavelength of λ=1.128 Å (11.0 keV) with atypical flux of approximately […]. The sample to detector distance was chosen as 1.6 m which provided a q-range of 0.01-0.5 Å^−1 (scattering vector q=4π sin (θ/2)/λ, whereby θ is the scattering angle and λ is the wavelength). Sample scattering patterns were obtained at 25° C. and 37° C. following the procedure reported in the literature. The plate was placed in a holder perpendicular to the X-ray beam. The sample holder was moved by motors that were controlled by in-house ScatterBrain software for automatic SAXS screening. The sample temperature was controlled by a circulating water bath and kept at 25° C. or 37° C. Two-dimensional X-ray diffraction images were recorded on a Decris-Pilatus 1-M detector using ScatterBrain. The scattering images were integrated into one dimensional plots of intensity versus q for phase identification. The mesophase of the nanoparticles were assigned by matching the relative positions of the scattering peaks with known patterns for bicontinuous cubic, hexagonal, lamellar, and micellar cubic phase. The lattice parameter of the nanoparticles were calculated using the IDL-based software AXcess following the described method (Tran et al. 2018; Tran et al. 2016).
# As detailed in Example 2 above, lipid nanoparticles described herein were prepared by doping the synthesised amino lipids into MO at 8 different compositions (RMO=0.05, 0.1, 0.15, 0.2, 0.25, 0.3, 0.4, 0.5) and dispersed with Pluronic F-127. Mesophase structure of the drug-free formulations was determined by SAXS over ten different pH values (a pH range of 2.5 to 10). FIG. 3 represents the SAXS partial phase diagrams of these nanoparticles at 25° C. The shape of an amphiphile can be characterised by the critical packing parameter (CPP). CPP=V/al, in which V is the effective volume of the amphiphile's hydrophobic tail, a is the effective cross-sectional area of the headgroup, and l is the effective length of the hydrocarbon chain. Lamellar phases (Lα) are typically observed with a zero interfacial curvature. For CPP values greater than 1, inverse phases, such as Q2 and H2 phases, are formed with increasing negative interfacial curvatures. The Q2 phase consists of lipid bilayers arranged in periodic 3D structures by twisting the bilayers into the shape of infinite periodic minimal surfaces. The H2 is a closed, extended micellar columnar structure, where there is no direct contact between the water inside and outside the H2 phase.
# [6] = MO nanoparticles with amino lipid at RMO 0.05, Pluronic F-127, 25° C.
# [7] = MO nanoparticles with amino lipid at RMO 0.1, Pluronic F-127, 25° C.
# [8] = MO nanoparticles with amino lipid at RMO 0.15, Pluronic F-127, 25° C.
# [9] = MO nanoparticles with amino lipid at RMO 0.2, Pluronic F-127, 25° C.
# [10] = MO nanoparticles with amino lipid at RMO 0.25, Pluronic F-127, 25° C.
# [11] = MO nanoparticles with amino lipid at RMO 0.3, Pluronic F-127, 25° C.
# [12] = MO nanoparticles with amino lipid at RMO 0.4, Pluronic F-127, 25° C.
# [13] = MO nanoparticles with amino lipid at RMO 0.5, Pluronic F-127, 25° C.
Compound,"PDI of the formulations [1, 6]","Particle Size in nm [1, 6] [nm]","PDI of the formulations [1, 7]","Particle Size in nm [1, 7] [nm]","PDI of the formulations [1, 8]","Particle Size in nm [1, 8] [nm]","PDI of the formulations [1, 9]","Particle Size in nm [1, 9] [nm]","PDI of the formulations [1, 10]","Particle Size in nm [1, 10] [nm]","PDI of the formulations [1, 11]","Particle Size in nm [1, 11] [nm]","PDI of the formulations [1, 12]","Particle Size in nm [1, 12] [nm]","PDI of the formulations [1, 13]","Particle Size in nm [1, 13] [nm]",also measured
CCc1c2c(nc3ccc(O)cc13)-c1cc3c(c(=O)n1C2)COC(=O)[C@]3(O)CC [SN-38],–,–,–,–,–,–,–,–,–,–,–,–,–,–,–,–,Loading relative to solubility of SN-38 in water ([2]; 844 μg/ml loading): ~100 times; Loading of SN-38 ([2]; highest loading achieved in MO/Lipid-10 nanoparticles): 844 µg/mL; SN-38 released through dialysis membrane [3]: More than 90%; Solubility in water [4]: 7 to 11 µg/mL
CCCCCCCC/C=C\CCCCCCCC(=O)NCc1ccccn1 [Lipid-11],0.23 ± 0.04,284 ± 2,0.18 ± 0.03,255 ± 4,0.20 ± 0.03,300 ± 7,0.23 ± 0.02,267 ± 4,0.28 ± 0.02,313 ± 4,0.20 ± 0.02,290 ± 4,0.10 ± 0.02,272 ± 5,0.21 ± 0.03,300 ± 4,"Phase observed ([5]; RMO=0.4, neutral pH, MO nanoparticles): L2 phase; pH of transition from L2 to Q2 ([5]; RMO=0.4-0.5): 3.0 pH"
"CCCCCCCC/C=C\CCCCCCCC(=O)NCc1ccncc1 [Lipid-10, N-(pyridine-4-ylmethyl)oleamide]",0.16 ± 0.03,217 ± 6,0.21 ± 0.02,224 ± 3,0.2 ± 0.05,259 ± 8,0.19 ± 0.03,271 ± 4,0.39 ± 0.03,250 ± 3,0.22 ± 0.02,246 ± 4,0.24 ± 0.03,244 ± 6,0.25 ± 0.04,265 ± 4,"Shift of H2 to Q2 transition at 37° C. compared to 25° C. (higher) ([5]; RMO 0.4, pH 4.0 to 7.5): 0.5 pH unit; pH at which Q2 is reached in the transition from H2 at pH 7.5 ([5]; RMO=0.4-0.5, 25° C.): 5.5 pH; pH resulting in liposome formation ([5]; RMO=0.4-0.5, further decrease in pH): 4.0 pH; RMO at which the transition from Q2 to H2 occurred ([5]; pH 7, MO nanoparticles): 0.4"

# The next lines start with results.
"PDI of the formulations [1, 6]","Particle Size in nm [1, 6] [nm]","PDI of the formulations [1, 7]","Particle Size in nm [1, 7] [nm]","PDI of the formulations [1, 8]","Particle Size in nm [1, 8] [nm]","PDI of the formulations [1, 9]","Particle Size in nm [1, 9] [nm]","PDI of the formulations [1, 10]","Particle Size in nm [1, 10] [nm]","PDI of the formulations [1, 11]","Particle Size in nm [1, 11] [nm]","PDI of the formulations [1, 12]","Particle Size in nm [1, 12] [nm]","PDI of the formulations [1, 13]","Particle Size in nm [1, 13] [nm]",Compound,also measured
0.23 ± 0.03,214 ± 4,0.20 ± 0.05,218 ± 3,0.20 ± 0.05,239 ± 3,0.30 ± 0.03,250 ± 2,0.25 ± 0.03,191 ± 8,0.25 ± 0.05,206 ± 11,0.40 ± 0.04,205 ± 6,0.38 ± 0.03,137 ± 6,CCCCCCCC/C=C\CCCCCCCC(=O)NCCN1CCOCC1 [Lipid-12],–
0.25 ± 0.03,180 ± 3,0.20 ± 0.04,176 ± 4,0.23 ± 0.04,168 ± 4,0.22 ± 0.05,185 ± 6,0.19 ± 0.03,180 ± 2,0.23 ± 0.03,194 ± 5,0.15 ± 0.05,200 ± 5,0.18 ± 0.05,209 ± 5,"CCCCCCCC/C=C\CCCCCCCC(=O)NCCN1CCCCC1 [Lipid-13, N-(2-(piperidin-1-yl)ethyl)oleamide]",pH difference within which the change from H2 to Q2 is observed ([5]; RMO=0.2-0.3): ≤ 0.5 pH unit; pH of H2→Q2 transition ([5]; RMO=0.2-0.3): 7.0 pH
